Molecular target: CYP153D17 (Sphingomonas sp. PAMC 26605, UniProt A0ACD6BAR9)
Assay: UV-Vis spectral binding titration (substrate binding assay) of purified CYP153D17
Conditions: 1 μM CYP153D17; for Kd: apparent dissociation constant from titration curves (A390-A420); for Spin Shift (%): shift in heme spin state from low-spin (Soret maximum at 420 nm) to high-spin (390 nm)
Procedure: To determine the binding affinity of CYP153D17, spectral binding titrations were performed with the alkanes (decane and dodecane) and fatty acids (capric acid, lauric acid, and myristic acid). All tested substrates changed the spectrum of CYP153D17, with a shift of the Soret band at 420 to 390 nm, which is typical of the high-spin form (Figure 2), after which the apparent dissociation constants from the titration curves (Kd values) were obtained (Table 1). Dodecane, capric acid, and lauric acid binding to CYP153D17 induced a ≥90% shift in the heme spin state from low-spin (Soret maximum at 420 nm) to high-spin (Soret maximum at 390 nm), whereas decane and myristic acid induced a ≥80% shift in the same heme spin state.
To determine whether CYP153D17 can bind alkanes and fatty acids, a UV-Vis (Ultraviolet-Visible) spectral binding titration assay was performed. Binding of the substrate to CYP153D17 induced a shift of the Soret band of the CYP absorption spectrum from A420 to A390 [30]. Alkanes (decane and dodecane) and fatty acids (capric acid, lauric acid, and myristic acid) were dissolved in ethanol to prepare stock solutions of different concentrations (0.4–5 mM) for each substrate. Binding of substrate to CYP153D17 was carried out by the consecutive addition of 1-μL aliquots from the stock solutions to 1 mL of 1 μM CYP153D17 solution, and the UV–Vis spectra of the mixture were recorded. To calculate Kd, the difference between adsorption at A390 and A420 was calculated, corrected with the A390-to-A420 value at 0 M substrate, and plotted against the substrate concentrations. The data were fitted to equations as described by Funhoff et al..

CYP153D17, sequence (A0ACD6BAR9 1-407): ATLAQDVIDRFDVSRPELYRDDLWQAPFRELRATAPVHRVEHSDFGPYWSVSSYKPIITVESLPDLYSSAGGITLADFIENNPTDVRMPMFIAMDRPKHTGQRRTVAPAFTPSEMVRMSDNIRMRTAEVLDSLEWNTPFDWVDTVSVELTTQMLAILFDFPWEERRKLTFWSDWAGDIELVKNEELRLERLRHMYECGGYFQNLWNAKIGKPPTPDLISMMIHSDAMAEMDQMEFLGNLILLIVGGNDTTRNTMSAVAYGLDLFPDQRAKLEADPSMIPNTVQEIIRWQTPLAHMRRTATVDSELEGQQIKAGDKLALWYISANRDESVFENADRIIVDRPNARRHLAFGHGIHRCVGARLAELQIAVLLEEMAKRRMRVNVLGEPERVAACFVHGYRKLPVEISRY

SMILES | Kd | Spin Shift (%) | Spin Shift (%) (listed as capric acid) | Spin Shift (%) (listed as decane) | Spin Shift (%) (listed as lauric acid) | Spin Shift (%) (listed as myristic acid)
CCCCCCCCCC(=O)O [Capric acid, capric acid] | 460 ± 410 nM | ≥90% | ≥ 90% |  |  | 
CCCCCCCCCC [Decane, decane] | 590 ± 690 nM | ≥80% |  | ≥ 80% |  | 
CCCCCCCCCCCC [Dodecane, dodecane] | 420 ± 140 nM |  |  |  |  | 
CCCCCCCCCCCC(=O)O [Lauric acid, lauric acid] | 490 ± 700 nM | ≥90% |  |  | ≥ 90% | 
CCCCCCCCCCCCCC(=O)O [Myristic acid, myristic acid] | 540 ± 330 nM | ≥80% |  |  |  | ≥ 80%

Reference: paper PMC5187867, “Crystal Structure of a Putative Cytochrome P450 Alkane Hydroxylase (CYP153D17) from Sphingomonas sp. PAMC 26605 and Its Conformational Substrate Binding” (International Journal of Molecular Sciences, 2016)
